# Several values for one entry are separate records, joined by “and”; a condition that tells them apart may be missing. Equal values may be shown once.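 Five concentrations, 48 hours, 96-well plates. Here, GI50 denotes the concentration required for 50% inhibition of growth.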 Activity calls are given as the source filed them. No stated cut-off is given here; in the data, active = GI50 up to about 1.1 µM and inactive = higher.
# Legend:
# Assay in all cases: growth of human tumour cells (NCI), 48 h
# HCT-116 = system: HCT-116
# BT-549 = system: BT-549
# UACC-62 = system: UACC-62
# U-251 = system: U-251
# MDA-N = system: MDA-N
# LOX IMVI = system: LOX IMVI
# DU-145 = system: DU-145
# SK-MEL-28 = system: SK-MEL-28
# OVCAR-4 = system: OVCAR-4
# 786-0 = system: 786-0
# SF-295 = system: SF-295
# RPMI-8226 = system: RPMI-8226
# SK-MEL-5 = system: SK-MEL-5
# SNB-19 = system: SNB-19
# T47D = system: T47D
# HCC 2998 = system: HCC 2998
# SF-539 = system: SF-539
# A498 = system: A498
# A549 = system: A549
# MDA-MB-231 = system: MDA-MB-231
# SK-MEL-2 = system: SK-MEL-2
# CAKI-1 = system: CAKI-1
# IGROV-1 = system: IGROV-1
# SW-620 = system: SW-620
# CCRF-CEM = system: CCRF-CEM
# EKVX = system: EKVX
# HL-60 = system: HL-60
# MOLT-4 = system: MOLT-4
# NCI-H522 = system: NCI-H522
# K562 = system: K562
# OVCAR-8 = system: OVCAR-8
# RXF 393 = system: RXF 393
# SF-268 = system: SF-268
# UACC-257 = system: UACC-257
# COLO 205 = system: COLO 205
# M14 = system: M14
# Malme-3M = system: Malme-3M
# PC-3 = system: PC-3
# SN12C = system: SN12C
# OVCAR-5 = system: OVCAR-5
# NCI-H226 = system: NCI-H226
# OVCAR-3 = system: OVCAR-3
# NCI/ADR-RES = system: NCI/ADR-RES
# SNB-75 = system: SNB-75
# TK-10 = system: TK-10
# SK-OV-3 = system: SK-OV-3
# HT-29 = system: HT-29
# NCI-H23 = system: NCI-H23
# MDA-MB-435 = system: MDA-MB-435
# SR = system: SR
# KM12 = system: KM12
# ACHN = system: ACHN
# NCI-H460 = system: NCI-H460
# MCF7 = system: MCF7
# HOP-62 = system: HOP-62
# HCT-15 = system: HCT-15
# UO-31 = system: UO-31
compound,measurement,setting,value
O/N=C/C1C(OCc2ccccc2)C(OCc2ccccc2)C(OCc2ccccc2)CN1Cc1ccccc1 (centres undefined),GI50,HCT-116,3.89 µM (inactive) and 4.97 µM (inactive)
same,GI50,BT-549,15.3 µM (inactive)
same,GI50,UACC-62,13.9 µM (inactive) and 18.7 µM (inactive)
same,GI50,U-251,9.16 µM (inactive) and 15.5 µM (inactive)
same,GI50,MDA-N,16 µM (inactive) and 12.4 µM (inactive)
same,GI50,LOX IMVI,10.6 µM (inactive) and 6 µM (inactive)
same,GI50,DU-145,35.2 µM (inactive) and 60.4 µM (inactive)
same,GI50,SK-MEL-28,14.3 µM (inactive) and 15.2 µM (inactive)
same,GI50,OVCAR-4,6.41 µM (inactive)
same,GI50,786-0,8.99 µM (inactive) and 5.94 µM (inactive)
same,GI50,SF-295,6.15 µM (inactive) and 10.7 µM (inactive)
same,GI50,RPMI-8226,22.6 µM (inactive)
same,GI50,SK-MEL-5,11.7 µM (inactive)
same,GI50,SNB-19,29.4 µM (inactive) and 38.8 µM (inactive)
same,GI50,T47D,5.26 µM (inactive)
same,GI50,HCC 2998,7.48 µM (inactive)
same,GI50,SF-539,7.26 µM (inactive)
same,GI50,A498,5.2 µM (inactive)
same,GI50,A549,4.44 µM (inactive) and 7.87 µM (inactive)
same,GI50,MDA-MB-231,4.15 µM (inactive)
same,GI50,SK-MEL-2,19.6 µM (inactive)
same,GI50,CAKI-1,2.74 µM (inactive)
same,GI50,IGROV-1,22.1 µM (inactive) and 34 µM (inactive)
same,GI50,SW-620,5.41 µM (inactive) and 10.2 µM (inactive)
same,GI50,CCRF-CEM,3.37 µM (inactive) and 3.65 µM (inactive)
same,GI50,EKVX,41.2 µM (inactive)
same,GI50,HL-60,13.1 µM (inactive)
same,GI50,MOLT-4,2.77 µM (inactive) and 1.52 µM (inactive)
same,GI50,NCI-H522,9.55 µM (inactive)
same,GI50,K562,3.82 µM (inactive) and 4.53 µM (inactive)
same,GI50,OVCAR-8,16 µM (inactive) and 13.1 µM (inactive)
same,GI50,RXF 393,3.51 µM (inactive)
same,GI50,SF-268,16.7 µM (inactive) and > 10 µM (inactive)
O=[N+]([O-])/C(C(Cl)=C(Cl)Cl)=C(\N1CCCCC1)n1cncn1,GI50,HCT-116,22.2 µM (inactive)
same,GI50,BT-549,17.5 µM (inactive)
same,GI50,UACC-257,17.5 µM (inactive)
same,GI50,COLO 205,15.7 µM (inactive)
same,GI50,UACC-62,15.2 µM (inactive)
same,GI50,M14,17.2 µM (inactive)
same,GI50,Malme-3M,15.9 µM (inactive)
same,GI50,U-251,13.3 µM (inactive)
same,GI50,PC-3,16.4 µM (inactive)
same,GI50,MDA-N,14.4 µM (inactive)
same,GI50,SN12C,17.5 µM (inactive)
same,GI50,LOX IMVI,15.1 µM (inactive)
same,GI50,DU-145,16.6 µM (inactive)
same,GI50,OVCAR-5,16.2 µM (inactive)
same,GI50,SK-MEL-28,16.3 µM (inactive)
same,GI50,OVCAR-4,18.6 µM (inactive)
same,GI50,NCI-H226,18.3 µM (inactive)
same,GI50,OVCAR-3,16 µM (inactive)
same,GI50,786-0,20.4 µM (inactive)
same,GI50,SF-295,17.1 µM (inactive)
same,GI50,RPMI-8226,19.1 µM (inactive)
same,GI50,NCI/ADR-RES,20.1 µM (inactive)
same,GI50,SK-MEL-5,12.6 µM (inactive)
same,GI50,SNB-19,17.7 µM (inactive)
same,GI50,SNB-75,23 µM (inactive)
same,GI50,TK-10,17.2 µM (inactive)
same,GI50,SK-OV-3,17.6 µM (inactive)
same,GI50,T47D,14.8 µM (inactive)
same,GI50,HCC 2998,20 µM (inactive)
same,GI50,SF-539,17.1 µM (inactive)
same,GI50,HT-29,17.7 µM (inactive)
same,GI50,A498,15.8 µM (inactive)
same,GI50,NCI-H23,15.2 µM (inactive)
same,GI50,A549,19.7 µM (inactive)
same,GI50,MDA-MB-231,14.8 µM (inactive)
same,GI50,SK-MEL-2,18 µM (inactive)
same,GI50,CAKI-1,10.6 µM (inactive)
same,GI50,IGROV-1,9.08 µM (inactive)
same,GI50,SW-620,15.8 µM (inactive)
same,GI50,CCRF-CEM,3.79 µM (inactive)
same,GI50,EKVX,15.8 µM (inactive)
same,GI50,MDA-MB-435,17.9 µM (inactive)
same,GI50,MOLT-4,> 24.2 µM (inactive)
same,GI50,SR,3.99 µM (inactive)
same,GI50,KM12,19.5 µM (inactive)
same,GI50,ACHN,17.7 µM (inactive)
same,GI50,NCI-H460,26.2 µM (inactive)
same,GI50,NCI-H522,15.6 µM (inactive)
same,GI50,K562,> 46 µM (inactive)
same,GI50,MCF7,14.9 µM (inactive)
same,GI50,OVCAR-8,19.5 µM (inactive)
same,GI50,RXF 393,6.64 µM (inactive)
same,GI50,HOP-62,19.6 µM (inactive)
same,GI50,HCT-15,16 µM
same,GI50,UO-31,15.9 µM (inactive)
same,GI50,SF-268,12.9 µM (inactive)
